In one assay the target is T1, KDM4C (Homo sapiens, UniProt Q9H3R0).
T1 sequence (Q9H3R0 1-1056): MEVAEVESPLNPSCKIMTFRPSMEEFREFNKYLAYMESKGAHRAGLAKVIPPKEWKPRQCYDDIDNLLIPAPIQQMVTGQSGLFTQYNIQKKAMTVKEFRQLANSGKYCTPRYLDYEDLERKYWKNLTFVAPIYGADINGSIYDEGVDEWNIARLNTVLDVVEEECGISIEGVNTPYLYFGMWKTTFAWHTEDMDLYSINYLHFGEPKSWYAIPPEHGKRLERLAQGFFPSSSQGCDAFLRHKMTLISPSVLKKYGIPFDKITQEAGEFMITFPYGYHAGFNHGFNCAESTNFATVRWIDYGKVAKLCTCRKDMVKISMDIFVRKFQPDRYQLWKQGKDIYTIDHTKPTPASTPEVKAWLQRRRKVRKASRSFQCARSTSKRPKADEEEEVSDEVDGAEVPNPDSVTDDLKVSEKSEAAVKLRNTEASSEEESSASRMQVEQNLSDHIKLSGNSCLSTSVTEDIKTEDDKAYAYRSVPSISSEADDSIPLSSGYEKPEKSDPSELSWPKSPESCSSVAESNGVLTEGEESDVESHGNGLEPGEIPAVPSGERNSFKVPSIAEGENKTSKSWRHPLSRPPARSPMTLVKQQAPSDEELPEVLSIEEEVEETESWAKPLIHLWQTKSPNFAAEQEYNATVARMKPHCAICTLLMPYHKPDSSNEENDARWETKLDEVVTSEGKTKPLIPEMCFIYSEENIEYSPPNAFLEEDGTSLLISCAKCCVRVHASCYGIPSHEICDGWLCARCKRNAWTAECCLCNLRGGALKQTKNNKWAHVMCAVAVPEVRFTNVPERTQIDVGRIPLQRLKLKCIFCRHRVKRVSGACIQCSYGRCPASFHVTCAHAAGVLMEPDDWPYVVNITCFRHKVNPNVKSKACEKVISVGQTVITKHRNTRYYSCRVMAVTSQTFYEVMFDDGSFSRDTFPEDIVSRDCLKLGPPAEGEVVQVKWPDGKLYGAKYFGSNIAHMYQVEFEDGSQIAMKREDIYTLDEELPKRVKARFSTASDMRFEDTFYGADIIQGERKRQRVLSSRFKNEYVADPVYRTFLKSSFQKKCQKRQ
Kind of assay: SPR (Biacore T200), protein immobilized on CM5 chip. The class given is binding.

For the next assay, the target named is T2, KDM4A (Homo sapiens, UniProt O75164).
T2 sequence (O75164 2-1064): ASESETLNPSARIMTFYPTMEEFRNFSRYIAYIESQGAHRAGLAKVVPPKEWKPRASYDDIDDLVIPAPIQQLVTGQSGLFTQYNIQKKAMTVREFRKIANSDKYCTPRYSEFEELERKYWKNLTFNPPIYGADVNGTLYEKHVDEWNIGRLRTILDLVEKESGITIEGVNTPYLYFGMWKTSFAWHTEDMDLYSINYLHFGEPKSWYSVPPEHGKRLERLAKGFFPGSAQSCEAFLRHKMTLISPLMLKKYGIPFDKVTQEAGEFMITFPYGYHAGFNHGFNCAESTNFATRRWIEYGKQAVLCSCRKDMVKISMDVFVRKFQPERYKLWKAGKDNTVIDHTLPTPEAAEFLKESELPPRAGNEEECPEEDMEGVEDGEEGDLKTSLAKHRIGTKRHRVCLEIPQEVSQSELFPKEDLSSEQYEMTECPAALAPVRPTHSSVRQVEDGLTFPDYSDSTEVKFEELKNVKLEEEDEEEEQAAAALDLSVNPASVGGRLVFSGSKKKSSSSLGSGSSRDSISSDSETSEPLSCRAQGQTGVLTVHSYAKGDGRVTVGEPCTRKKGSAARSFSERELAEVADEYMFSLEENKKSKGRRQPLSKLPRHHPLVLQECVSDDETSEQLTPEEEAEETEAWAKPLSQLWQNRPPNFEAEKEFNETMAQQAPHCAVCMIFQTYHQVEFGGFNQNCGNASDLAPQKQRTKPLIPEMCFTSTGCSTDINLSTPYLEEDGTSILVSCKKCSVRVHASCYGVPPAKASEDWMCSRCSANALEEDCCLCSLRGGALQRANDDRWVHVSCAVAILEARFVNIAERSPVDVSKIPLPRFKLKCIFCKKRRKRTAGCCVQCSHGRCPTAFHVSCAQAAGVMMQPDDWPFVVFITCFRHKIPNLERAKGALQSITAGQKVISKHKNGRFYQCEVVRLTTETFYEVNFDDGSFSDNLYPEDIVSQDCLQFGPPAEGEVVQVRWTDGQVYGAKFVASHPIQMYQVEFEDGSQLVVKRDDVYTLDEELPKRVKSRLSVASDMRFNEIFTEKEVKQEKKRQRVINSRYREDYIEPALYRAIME
The description is as above. The class given is binding.

What is called Kd is the free concentration of one partner at which half of the binding sites on the other are occupied at equilibrium, for simple one-to-one binding. High values mean a looser complex, low ones a tighter complex.

With `O=C(N/N=C/c1c(O)ccc2ccccc12)c1ccccc1O` [SD49-7], the Kd on KDM4C came out at 1060 nM; at KDM4A, 988 nM.
On the same counts, the results for `CC(C)C(=O)NC(c1ccco1)c1ccc2cccnc2c1O` (stereo not shown) [SD70] are 2590 nM and 18000 nM.

The record behind these values is paper PMC9274755, “KDM4 inhibitor SD49-7 attenuates leukemia stem cell via KDM4A/MDM2/p21^CIP1 axis” (Theranostics, 2022).
